Laboratory results published in PMC9130538, “Amino acids in transmembrane helix 1 confer major functional differences between human and mouse orthologs of the polyspecific membrane transporter OCT1” (The Journal of Biological Chemistry, 2022).

Key:
human OCT1 = target: T1, human OCT1 (Homo sapiens, UniProt O15245); experiment: Cellular uptake by HEK293 cells overexpressing human OCT1 (wildtype); settings: human versus mouse OCT1, stably transfected HEK293
T1 sequence (O15245 1-554): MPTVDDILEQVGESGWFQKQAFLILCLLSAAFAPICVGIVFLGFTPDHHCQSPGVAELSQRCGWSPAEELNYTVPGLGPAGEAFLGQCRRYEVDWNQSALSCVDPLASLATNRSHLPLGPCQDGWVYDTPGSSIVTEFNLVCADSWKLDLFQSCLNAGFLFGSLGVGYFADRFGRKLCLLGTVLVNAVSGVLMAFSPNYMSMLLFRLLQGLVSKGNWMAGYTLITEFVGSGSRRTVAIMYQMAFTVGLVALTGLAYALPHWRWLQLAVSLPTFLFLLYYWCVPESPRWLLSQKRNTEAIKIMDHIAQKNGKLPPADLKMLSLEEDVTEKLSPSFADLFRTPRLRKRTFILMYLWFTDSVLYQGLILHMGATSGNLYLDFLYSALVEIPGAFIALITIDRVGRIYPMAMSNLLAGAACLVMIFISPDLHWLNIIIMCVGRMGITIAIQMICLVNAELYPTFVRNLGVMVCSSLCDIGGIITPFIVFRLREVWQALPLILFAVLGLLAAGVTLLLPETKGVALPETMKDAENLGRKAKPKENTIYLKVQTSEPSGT
Method: Generation and characterization of these cell lines has been described in detail before ([34], [48], [49]). Cells were cultured in Dulbecco’s Modified Eagle’s Medium supplemented with 10% fetal bovine serum, 100 U/ml penicillin, and 100 μg/ml streptomycin at 37 °C and 5% CO2 and were passaged twice a week.
At 48 h prior to the experiment, 6 × 10^5 cells were seeded per well in 12-well plates. When using transiently transfected cells, 5 × 10^5 T-REx-293 cells (Life Technologies) were seeded per well in 12-well plates 72 h prior to the experiment, and they were transfected 24 h later as described previously. Twelve-well plates were precoated with poly-D-lysine.
(§1) Cellular uptake experiments were performed at 37 °C and pH 7.4 using HBSS supplemented with 10 mM Hepes (in the following referred to as HBSS+). Cells were washed with 1 ml prewarmed (37 °C) HBSS+, and the uptake was initiated by adding 400 μl of prewarmed HBSS+ containing the substrate. Uptake was allowed for exactly 2 min and afterward stopped by adding 2 ml ice-cold HBSS+. Cells were washed twice with 2 ml ice-cold HBSS+ and lysed with 80% acetonitrile supplemented with internal standard, 0.1 N NaOH/0.1% SDS, or radioimmunoprecipitation buffer for LC–MS/MS, liquid scintillation counting, or fluorescence spectroscopy detection, respectively. Intracellular substrate concentrations were measured as described in the following and were then normalized to the amount of total protein in the samples as measured using the bicinchoninic acid assay ([51]).
For LC–MS/MS quantification of intracellular substrate concentrations, the cell lysate was centrifuged at 16,000g for 15 min, and 350 μl of supernatant was evaporated to dryness under nitrogen flow at 40 °C. The sample was reconstituted with 200 μl 0.1% formic acid, and between 2 and 30 μl were injected into the LC–MS/MS system (Table S1).
An API4000 QTRAP tandem mass spectrometer with ESI interface (AB SCIEX) was used, coupled to a Shimadzu Nexera X2 UHPLC system with LC 30AD pumps and SiL 30AC autosampler (Shimadzu).
Intracellular concentrations of radioactively labeled substrates MPP^+ and TEA^+ were quantified using liquid scintillation counting. To this end, 400 μl cell lysate was transferred into a 20 ml scintillation vial, 9 ml Aquasafe 500 Plus liquid scintillator (both Zinsser Analytics) was added, and the sample was measured in the Scintillation Counter LS6500 (Beckman Coulter).
For both analyses, SPSS Statistics, version 28 (SPSS, Inc, IBM) was used.

human OCT1 Cys36Tyr = target: T2, human OCT1 Cys36Tyr (Homo sapiens, UniProt O15245, C36Y); experiment: Uptake by HEK293 cells overexpressing Cys36Tyr human OCT1; assay type: cell-based; settings: stably transfected HEK293, increasing concentrations, 2 min
T2 construct: expressed in transfected cells
Method: (§2) Human–mouse chimeric OCT1 constructs were generated using the overlap extension method ([50]) and have been characterized before ([34]). […] All constructs were validated by capillary sequencing of the complete open reading frame of OCT1 before transfection into HEK293 cells.
(§3) For transient transfection of OCT1 constructs into HEK293 cells for uptake experiments, 5 × 10^5 T-REx-293 cells (Life Technologies) were seeded per well in 12-well plates precoated with poly-D-lysine. […] At 48 h later, transfection efficacy was assessed microscopically by visualizing the GFP signal of the cotransfected GFP vector, and the cells were subsequently used for uptake experiments. […]
as §1, with “Cells were washed with 1 ml prewarmed (37 °C) HBSS+, and the uptake was initiated by adding 400 μl of prewarmed HBSS+ containing the substrate. Uptake was allowed for exactly 2 min and afterward stopped by adding 2 ml ice-cold HBSS+.” left out, “([51]). […]” for “([51]).”

mouse Oct1 Tyr36Cys = mouse Oct1 Tyr36Cys (Mus musculus, UniProt O08966, Y36C); settings: stably transfected HEK293, increasing concentrations, 2 min
mouse Oct1 Tyr36Cys, sequence (O08966 whole entry Y36C): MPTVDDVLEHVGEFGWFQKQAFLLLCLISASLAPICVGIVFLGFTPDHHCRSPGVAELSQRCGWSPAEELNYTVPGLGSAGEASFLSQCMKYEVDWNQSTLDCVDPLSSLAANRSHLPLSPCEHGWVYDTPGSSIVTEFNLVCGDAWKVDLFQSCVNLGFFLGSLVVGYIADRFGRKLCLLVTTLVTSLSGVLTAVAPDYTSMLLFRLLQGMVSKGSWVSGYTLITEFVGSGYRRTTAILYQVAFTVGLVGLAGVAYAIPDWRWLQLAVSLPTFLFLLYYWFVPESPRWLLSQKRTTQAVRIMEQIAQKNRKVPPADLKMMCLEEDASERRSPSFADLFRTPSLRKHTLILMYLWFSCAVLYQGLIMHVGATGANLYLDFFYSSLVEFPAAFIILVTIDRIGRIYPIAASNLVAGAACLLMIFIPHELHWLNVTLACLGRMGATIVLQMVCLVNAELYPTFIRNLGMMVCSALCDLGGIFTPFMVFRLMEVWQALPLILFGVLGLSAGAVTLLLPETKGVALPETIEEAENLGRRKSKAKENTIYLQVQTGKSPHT
Method: as §2, §3
as §1, with “Cells were washed with 1 ml prewarmed (37 °C) HBSS+, and the uptake was initiated by adding 400 μl of prewarmed HBSS+ containing the substrate. Uptake was allowed for exactly 2 min and afterward stopped by adding 2 ml ice-cold HBSS+.” left out, “([51]). […]” for “([51]).”

[1] = human, estimated based on clinical data, ref [9]; cited from earlier work

Compound | fold lower affinity (KM) of human OCT1 than mouse Oct1 (higher affinity of mouse Oct1) (human OCT1) | effect of Cys36Tyr in human OCT1 on affinity (KM) (human OCT1 Cys36Tyr) | effect of Tyr36Cys in mouse OCT1 on affinity (KM) (mouse Oct1 Tyr36Cys) | fold higher affinity (KM) of human than of mouse OCT1 (human OCT1) [fold] | clinically relevant (plasma) concentration [1] [nM]
CC(C)(C)NCC(O)c1cc(O)cc(O)c1 (centres unmarked) [Terbutaline] | more than sixfold higher affinity of mouse Oct1 | did not affect | did not affect | – | –
CC(Cc1ccc(O)cc1)NCC(O)c1cc(O)cc(O)c1 (centres unmarked) [Fenoterol] | – | – | – | 8.1 | 2.18
